Here are results for three molecules from publication PMC9767854, “Discovery and mechanism studies of a novel ATG4B inhibitor Ebselen by drug repurposing and its anti-colorectal cancer effects in mice” (Cell & Bioscience, 2022).

In one assay the test system is CASP3. Also on record: method as in PMID 23632366, PMID 25468037. To be noted: cited from earlier work.
In another assay the test system is WT and ATG4B KO HCT116. Nature of the assay: Apoptosis detection by cleaved PARP western blot. Type of assay: cell-based. As to conditions: low or high concentrations of Ebselen; STS 2 μM; 6 h. (In general: In western blotting, separated proteins are transferred to a membrane and probed.)
For a further assay, the system named is HeLa cell line. Nature of the assay: Autophagy flux by LC3B-II western blot in HeLa. As to conditions: Torin 1 2 μM, CQ 40 μM. Type of assay: cell-based. Here is the method:
Since ATG4B is a key protein in autophagy, the experiment on the effect of Ebselen on autophagy flux was worth proposing. First of all, we determined the most classic index LC3B for autophagy flux detection in HeLa cell line. […] A, B HeLa cells were treated with Torin 1 (2 μM) or CQ (40 μM) and detected by western blot. C, D SW620 cells were transduced with sgCon and sgATG4B lentiviruses, respectively. Then cells were treated with CQ (40 μM) and detected by western blot. E, F HCT116 were treated with Ebselen (5 and 10 μM) or CQ (40 μM) and subjected to western blot. G, H SW620 were treated with Ebselen (10 μM) or CQ (40 μM) and western blotting was carried out to detect the protein levels. I, J Immunofluorescence analysis of endogenous LC3B in HCT116 treated with Ebselen (10 μM) or CQ (40 μM). Dots numbers for LC3B were derived from counting at least 20 cells and 5 fields from three independent replicated experiments. Bar = 10 μm. K HCT116 cells were treated with 2 μM Torin 1 in the presence or absence of 10 μM Ebselen for 12 h, then the level ratio of long-lived proteins was measured by flow cytometry

As for `O=c1c2ccccc2sn1-c1ccccc1` [Ebsulfur], the “inhibition on CASP3” value with CASP3 is given as “clear inhibition”.

As to `CN[C@@H]1C[C@H]2O[C@@](C)([C@@H]1OC)n1c3ccccc3c3c4c(c5c6ccccc6n2c5c31)C(=O)NC4` [Staurosporine (STS), Staurosporine], the “apoptosis (cleaved PARP)” value in the assay on WT and ATG4B KO HCT116 is recorded as “generation of apoptosis”.

Take `CCC(=O)N1CCN(c2ccc(-n3c(=O)ccc4cnc5ccc(-c6cnc7ccccc7c6)cc5c43)cc2C(F)(F)F)CC1` [Torin 1]: the “effect on autophagy (LC3B-II accumulation with CQ)” value in the assay on HeLa cell line is given as “autophagy inducer”.
